Source: publication PMC10916400, “Effect of the aggregated protein dye YAT2150 on Leishmania parasite viability” (Antimicrobial Agents and Chemotherapy, 2024)

Experiments:
[1] = Solubility screen assay (nephelometry); format: physicochemical; conditions: PBS with 1% DMSO; read-out: Aqueous solubility
Description: The stock solutions (10^‒2 M) of the assayed compounds were diluted to decreased molarity, from 300 μM to 0.1 µM, in a 384-well transparent plate (Greiner Bio-One, Madrid, Spain) with DMSO:PBS (1:99 vol/vol). After 2 h of incubation at 37°C, the plate was read in a NEPHELOstar Plus nephelometer (BMG LABTECH GmbH, Ortenberg, Germany) at 635 nm. The results were adjusted to a segmented regression to obtain the maximum concentration at which the compounds were soluble.

[2] = Caco-2 permeability assay; format: in vitro ADME; conditions: human
Description: (§1) Caco-2 cells (ATCC under the license of Abcam Inc., doing business as NaviCyte Scientific, Berkeley, CA) cultured to confluency were trypsinized and seeded onto a filter transwell insert (high-throughput screening Transwell 96-well permeable supports; Corning Inc.) at a density of ~10,000 cells/well in Dulbecco’s modified Eagle’s medium (DMEM). Confluent cells were subcultured at passages 58–62 and grown in a humidified atmosphere of 5% CO2 at 37°C. Following an overnight attachment period (24 h after seeding), the cell medium was replaced every other day with fresh medium in both the apical and basolateral compartments. The cell monolayers were used for transport studies 21 days post-seeding, when monolayer integrity was checked by measuring the transepithelial electrical resistance (TEER). If TEER values were ≥500 Ω/cm^2, the medium was removed and the cells were washed twice with pre-warmed (37°C) Hank’s Balanced Salt Solution (HBSS). Compound stock solutions were made in DMSO and further diluted in HBSS (1% final DMSO concentration). All compounds, including controls (colchicine, E3S), were tested at a final concentration of 5 to 10 µM. For A → B directional transport, the donor working solution was added to the apical compartment (A) and HBSS as receiver working solution to the basolateral compartment (B). For B → A directional transport, the donor working solution was added to B and HBSS as receiver working solution to A. The cells were incubated at 37°C for 120 min with gentle stirring. At the end of the incubation, samples were taken from both donor and receiver compartments and transferred into 384-well plates, and compound concentrations were determined by UPLC-MS/MS analysis as for the plasma stability assay.

Caco-2 cells = assay: Caco-2 permeability assay; format: in vitro ADME; conditions: Caco-2, A→B, 37°C
Description: as §1

L. infantum amastigotes = assay: Amastigote growth inhibition assay (parasite rescue and transformation, RAW 264.7 macrophages); format: cell-based, Leishmania infantum; conditions: in vitro
Description: Compound activity on amastigotes was determined following the parasite rescue and transformation assay ([61]). RAW 264.7 macrophages were seeded in 96-well microtiter plates at 10^5 cells/mL of DMEM supplemented with 10% FBS and 1% penicillin-streptomycin (complete DMEM, DMEMc) in a final volume of 200 µL per well. After an overnight incubation (37°C, 5% CO2) to allow cell adherence, the medium was removed and 10^6 L. infantum promastigotes/mL were added (1:10 macrophage:promastigote ratio) in DMEM supplemented with 2% FBS and 1% penicillin-streptomycin (DMEM 2% FBS). After 24 h, parasites not internalized by macrophages were removed by washing (3×, PBS) and dilutions in DMEM 2% FBS of free or liposome-encapsulated compounds were added. After 48 h, the medium was removed, cells were washed three times with PBS, and 40 µL of 0.05% SDS in complete Schneider’s medium was added; after 40 s, 160 additional µL/well of complete Schneider’s medium was added and plates were incubated at 26°C for another 48 h. Then, resazurin sodium salt was incorporated at a final concentration of 0.00125% and plates were incubated for 24 h more in the same conditions. Afterwards, resorufin fluorescence was measured as above.

in vitro = format: cell-based; conditions: human umbilical vein endothelial cells, 48 h
Description: Human umbilical vein endothelial cells were maintained in M-199 supplemented with 10% fetal bovine serum (FBS) and 1% penicillin-streptomycin at 37°C, 5% CO2, and seeded in 96-well plates at a density of 50,000 cells/mL. After allowing cell adherence for 24 h, the medium was removed, and drugs or nanoformulations were added in M-199 supplemented with 1% penicillin-streptomycin. Plates were incubated for 48 h, and then, the medium in each well was replaced by 100 µL of M-199 containing penicillin-streptomycin and 0.00125% resazurin sodium salt (Sigma-Aldrich Corporation). Plates were incubated for 4 h, and resorufin fluorescence emission was measured (λex/em: 535/590 nm) in a Tecan Infinite 200 PRO equipment (Tecan Trading AG).

L. major promastigotes = assay: Luciferase assay for free intracellular ATP levels; format: cell-based, Leishmania major; conditions: luciferase-expressing L. major promastigotes, DMNPE-luciferin
Description: The process described in reference ([62]) was followed. Briefly, L. major promastigotes (Friendlin strain) were transfected with the pLEXSY-hyg2.1 expression vector (Jena Bioscience, Jena, Germany) containing a cytoplasmic form of firefly luciferase mutated at its C-terminal tripeptide to prevent its import into the glycosome. Promastigotes were grown in Roswell Park Memorial Institute 1640 medium (RPMI) supplemented with 10% FBS, 2 mM L-glutamine, 1,000 U/mL penicillin/streptomycin (Gibco, Billings, MT, US), and 100 µg/mL hygromycin (InvivoGen, San Diego, CA, US) at 26°C. To assess variation in the intracellular concentration of free ATP, parasites were harvested at the late exponential phase of growth. After two washes with Hanks balanced buffer, parasites were resuspended in the same buffer supplemented with 10 mM D-glucose at 2.2 × 10^7 parasites/mL. After the addition of DMNPE-caged D-luciferin (GoldBio, St. Louis, MO, US) at 50 µM final concentration, the parasite suspension was aliquoted (90 µL/well) into a black 96-microwell plate (Nunc A/S, Roskilde, Denmark), and luminescence readout was monitored in a POLARstar Galaxy microplate reader (BMG LABTECH GmbH) with a luminescence setup. Once the luminescence reached a plateau, 10 µL of a YAT2150 solution at 10× fold its final concentration was added (t0) and the luminescence value at this point was considered as 100%. […]

For CCN(CC)c1ccc(/C=C/c2cc[n+](CCCCCCCCCC[n+]3ccc(/C=C/c4ccc(N(CC)CC)cc4)c(C)c3)cc2C)cc1 [YAT2150], the solubility at 2 h [1] was 8.5 µM, the Papp A→B at 120 min ([2]; Caco-2, Caco-2, A→B, 37°C) was > 20 ×10⁻⁶ cm/s and the Papp B→A at 120 min ([2]; Caco-2, Caco-2, B→A, 37°C) was ~10 ×10⁻⁶ cm/s. The efflux ratio at 120 min ([2]; Caco-2, Papp BA/Papp AB) was 0.48, the “Papp AB” value (Caco-2 cells) was 207.6 ± 20.1 nm/s and the IC50 (L. infantum amastigotes; L. infantum amastigotes in RAW 264.7 macrophages) was 510 ± 110 nM. For the same compound, the IC50 (L. infantum amastigotes; Leishmania infantum, RAW264.7, L. infantum amastigotes in RAW 264.7 macrophages) was ~520 nM, the CC50 (in vitro) was 3.4 ± 0.5 µM and the “concentration beyond which a concentration-dependent reduction in luminescence (ATP) was observed” value (L. major promastigotes) was > 2 µM.
